Source: the supplement of paper PMC11208160

Assay: recombinant UMI read abundance after kanamycin selection (control-corrected) (log10(CPM+1)); higher = more efficient recombination; extreme values may be limits of the assay; sequences stand for … in AGTGCAGAGAAAATCGGCCAGTTTTCTCTGCCTGCAGTCCGCATGCCGTGGGACCCCTTGGGTTCTAACCTGTTGCCTAGATTTATGCAGCGGACTGCCTTTCTCCCAAAGTGATAAACCGG…AGGTTGGTTTCACT; site = the 11-nt donor
Outline: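 In Escherichia coli, a pool of donor and donor-binding-loop pairs, each with a 12-nt UMI, was tested for the IS621 bridge recombinase. Plating was on IPTG (0.07 mM) plus kanamycin, or without selection, in two replicates. Recombinant UMIs were amplified by PCR across the donor–target junction and sequenced, and counts were reported as log10(CPM+1) after averaging and control-derived scaling.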
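Also: IS621 bridge recombinase in Escherichia coli cells against a fixed T5 target plasmid.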

First: GGTGGAACATGGACCGGTTTTCCCGGTAATCCGTATTTGTT (site CGTGGAACTAA)
Second: GGTGGAACATGGACCGGTTTTCCCGGTAATCCGTATTTGTT (site GGTGGAACTAA)
The “recombinant UMI read abundance (log10)” value of the first is lower: 0.00196 for the first, 0.746 for the second.

“GGTGGAACATGGACCGGTTTTCCCGGTAATCCGTATTTGTT (site TGTGGAACTAA)” and “GGTGTGCCATGGACCGGTTTTCCCGGTAATCCGTATTTGAC (site GGTGTGCCTGT)” are within 0.2 log units of each other in “recombinant UMI read abundance (log10)” value: 0.00382 for the first, 0 for the second.

First: GGTTACTCATGGACCGGTTTTCCCGGTAATCCGTATTTGGA (site GGTTACTCTTC)
Second: GGTTAGACATGGACCGGTTTTCCCGGTAATCCGTATTTGAG (site AGTTAGACTCT)
The “recombinant UMI read abundance (log10)” value of the first is higher: 1.18 for the first, 0.498 for the second.

Compared with “GGTTAGACATGGACCGGTTTTCCCGGTAATCCGTATTTGAG (site CGTTAGACTCT)”, “GGTTAGACATGGACCGGTTTTCCCGGTAATCCGTATTTGAG (site GGTTAGACTCT)” is higher in “recombinant UMI read abundance (log10)” value: 0.202 for the first, 1.12 for the second.

“GGTTAGACATGGACCGGTTTTCCCGGTAATCCGTATTTGAG (site TGTTAGACTCT)” and “GGTTGGACATGGACCGGTTTTCCCGGTAATCCGTATTTGAC (site GATTGGACTGT)” are within 0.2 log units of each other in “recombinant UMI read abundance (log10)” value: 0.194 for the first, 0 for the second.

First: GGTTGGACATGGACCGGTTTTCCCGGTAATCCGTATTTGAC (site GCTTGGACTGT)
Second: GGTTGGACATGGACCGGTTTTCCCGGTAATCCGTATTTGAC (site GGTTGGACTGT)
The “recombinant UMI read abundance (log10)” value of the first is lower: 0 for the first, 1.49 for the second.

Going from “GGTTGGACATGGACCGGTTTTCCCGGTAATCCGTATTTGAC (site GTTTGGACTGT)” to “GGTTTATCATGGACCGGTTTTCCCGGTAATCCGTATTTGAC (site GGTTTATCTGT)”, the “recombinant UMI read abundance (log10)” value rises from 0 to 0.699.

Compared with “GTAAACCCATGGACCGGTTTTCCCGGTAATCCGTATTTGAT (site GTAAACCCTAT)”, “GTAAGATCATGGACCGGTTTTCCCGGTAATCCGTATTTGGC (site GTAAGATCTGC)” is higher in “recombinant UMI read abundance (log10)” value: 1.45 for the first, 2.74 for the second.

Going from “GTAAGCACATGGACCGGTTTTCCCGGTAATCCGTATTTGTA (site GTAAGCACTTA)” to “GTAAGCACATGGACCGGTTTTCCCGGTAATCCGTATTTGTA (site GTACGCACTTA)”, the “recombinant UMI read abundance (log10)” value falls from 2.03 to 0.0491.

“GTAAGCACATGGACCGGTTTTCCCGGTAATCCGTATTTGTA (site GTAGGCACTTA)” and “GTAAGCACATGGACCGGTTTTCCCGGTAATCCGTATTTGTA (site GTATGCACTTA)” are within 0.2 log units of each other in “recombinant UMI read abundance (log10)” value: 0.614 for the first, 0.495 for the second.

“GTAAGGCCATGGACCGGTTTTCCCGGTAATCCGTATTTGAC (site ATAAGGCCTGT)” and “GTAAGGCCATGGACCGGTTTTCCCGGTAATCCGTATTTGAC (site CTAAGGCCTGT)” are the same in “recombinant UMI read abundance (log10)” value: 0 for the first, 0 for the second.

“GTAAGGCCATGGACCGGTTTTCCCGGTAATCCGTATTTGAC (site GTAAGGCCTGT)” and “GTAAGGCCATGGACCGGTTTTCCCGGTAATCCGTATTTGAC (site TTAAGGCCTGT)” are the same in “recombinant UMI read abundance (log10)” value: 0 for the first, 0 for the second.

“GTAATCTCATGGACCGGTTTTCCCGGTAATCCGTATTTGAC (site GTAATCTCTGT)” and “GTAATTGCATGGACCGGTTTTCCCGGTAATCCGTATTTGTA (site GTAATTGCTTA)” are within 0.2 log units of each other in “recombinant UMI read abundance (log10)” value: 2.51 for the first, 2.57 for the second.

Going from “GTACAGTCATGGACCGGTTTTCCCGGTAATCCGTATTTGAT (site GTACAGTCTAT)” to “GTACGAGCATGGACCGGTTTTCCCGGTAATCCGTATTTGTG (site GTACGAGCTCA)”, the “recombinant UMI read abundance (log10)” value falls from 2.73 to 1.39.

Going from “GTACTATCATGGACCGGTTTTCCCGGTAATCCGTATTTGGC (site GTACTATCTGC)” to “GTACTTCCATGGACCGGTTTTCCCGGTAATCCGTATTTGTC (site GTACTTCCTGA)”, the “recombinant UMI read abundance (log10)” value falls from 3.19 to 1.93.

Going from “GTAGAACCATGGACCGGTTTTCCCGGTAATCCGTATTTGCA (site GTAGAACCTTG)” to “GTAGAGGCATGGACCGGTTTTCCCGGTAATCCGTATTTGTG (site GTAGAGGCTCA)”, the “recombinant UMI read abundance (log10)” value rises from 0 to 1.58.

Compared with “GTAGAGGCATGGACCGGTTTTCCCGGTAATCCGTATTTGTG (site GTCGAGGCTCA)”, “GTAGAGGCATGGACCGGTTTTCCCGGTAATCCGTATTTGTG (site GTGGAGGCTCA)” is higher in “recombinant UMI read abundance (log10)” value: 0.361 for the first, 0.704 for the second.

First: GTAGAGGCATGGACCGGTTTTCCCGGTAATCCGTATTTGTG (site GTTGAGGCTCA)
Second: GTAGCAACATGGACCGGTTTTCCCGGTAATCCGTATTTGTA (site GTAGCAACTTA)
The “recombinant UMI read abundance (log10)” value of the first is lower: 0.247 for the first, 2.18 for the second.

Going from “GTAGGCTCATGGACCGGTTTTCCCGGTAATCCGTATTTGTG (site GTAGGCTCTCA)” to “GTAGGGGCATGGACCGGTTTTCCCGGTAATCCGTATTTGAA (site GTAGGGGCTTT)”, the “recombinant UMI read abundance (log10)” value falls from 1.4 to 1.18.

First: GTAGTCCCATGGACCGGTTTTCCCGGTAATCCGTATTTGCG (site GTAGTCACTCG)
Second: GTAGTCCCATGGACCGGTTTTCCCGGTAATCCGTATTTGCG (site GTAGTCCCTCG)
The “recombinant UMI read abundance (log10)” value of the first is lower: 0.251 for the first, 0.791 for the second.

Compared with “GTAGTCCCATGGACCGGTTTTCCCGGTAATCCGTATTTGCG (site GTAGTCGCTCG)”, “GTAGTCCCATGGACCGGTTTTCCCGGTAATCCGTATTTGCG (site GTAGTCTCTCG)” is higher in “recombinant UMI read abundance (log10)” value: 0.16 for the first, 2.33 for the second.

Compared with “GTAGTCCCATGGACCGGTTTTCCCGGTAATCCGTATTTGGT (site GTAGTCCCTAC)”, “GTAGTCGCATGGACCGGTTTTCCCGGTAATCCGTATTTGCT (site GTAGTCGCTAG)” is higher in “recombinant UMI read abundance (log10)” value: 0.588 for the first, 2.87 for the second.

Compared with “GTAGTCGCATGGACCGGTTTTCCCGGTAATCCGTATTTGCT (site GTAGTCGCTCG)”, “GTAGTCGCATGGACCGGTTTTCCCGGTAATCCGTATTTGCT (site GTAGTCGCTGG)” is higher in “recombinant UMI read abundance (log10)” value: 1.77 for the first, 2.09 for the second.

First: GTAGTCGCATGGACCGGTTTTCCCGGTAATCCGTATTTGCT (site GTAGTCGCTTG)
Second: GTAGTCGCATGGACCGGTTTTCCCGGTAATCCGTATTTGGG (site GTAGTCGCTCA)
The “recombinant UMI read abundance (log10)” value of the first is higher: 1.57 for the first, 0.214 for the second.

“GTAGTCGCATGGACCGGTTTTCCCGGTAATCCGTATTTGGG (site GTAGTCGCTCC)” and “GTAGTCGCATGGACCGGTTTTCCCGGTAATCCGTATTTGGG (site GTAGTCGCTCG)” are within 0.2 log units of each other in “recombinant UMI read abundance (log10)” value: 0.132 for the first, 0.0493 for the second.

Going from “GTAGTCGCATGGACCGGTTTTCCCGGTAATCCGTATTTGGG (site GTAGTCGCTCT)” to “GTAGTTACATGGACCGGTTTTCCCGGTAATCCGTATTTGAC (site GTAGATACTGT)”, the “recombinant UMI read abundance (log10)” value rises from 0.661 to 2.18.

First: GTAGTTACATGGACCGGTTTTCCCGGTAATCCGTATTTGAC (site GTAGCTACTGT)
Second: GTAGTTACATGGACCGGTTTTCCCGGTAATCCGTATTTGAC (site GTAGGTACTGT)
The “recombinant UMI read abundance (log10)” value of the first is higher: 1.23 for the first, 0.575 for the second.

First: GTAGTTACATGGACCGGTTTTCCCGGTAATCCGTATTTGAC (site GTAGTTACTGT)
Second: GTAGTTCCATGGACCGGTTTTCCCGGTAATCCGTATTTGGT (site GTAGTTCCTAC)
The “recombinant UMI read abundance (log10)” value of the first is higher: 2.74 for the first, 0.849 for the second.

“GTAGTTCCATGGACCGGTTTTCCCGGTAATCCGTATTTGGT (site GTCGTTCCTAC)” and “GTAGTTCCATGGACCGGTTTTCCCGGTAATCCGTATTTGGT (site GTGGTTCCTAC)” are within 0.2 log units of each other in “recombinant UMI read abundance (log10)” value: 0 for the first, 0.00522 for the second.

Going from “GTAGTTCCATGGACCGGTTTTCCCGGTAATCCGTATTTGGT (site GTTGTTCCTAC)” to “GTATCAGCATGGACCGGTTTTCCCGGTAATCCGTATTTGTC (site GTATCAGCTGA)”, the “recombinant UMI read abundance (log10)” value rises from 0.00774 to 3.03.

Going from “GTATCTACATGGACCGGTTTTCCCGGTAATCCGTATTTGCT (site GTATCTACTAG)” to “GTATCTCCATGGACCGGTTTTCCCGGTAATCCGTATTTGTA (site GTATCTCCTTA)”, the “recombinant UMI read abundance (log10)” value falls from 1.66 to 0.705.

Going from “GTATGCACATGGACCGGTTTTCCCGGTAATCCGTATTTGTC (site GTATGCACTAA)” to “GTATGCACATGGACCGGTTTTCCCGGTAATCCGTATTTGTC (site GTATGCACTCA)”, the “recombinant UMI read abundance (log10)” value falls from 0.663 to 0.0163.

First: GTATGCACATGGACCGGTTTTCCCGGTAATCCGTATTTGTC (site GTATGCACTGA)
Second: GTATGCACATGGACCGGTTTTCCCGGTAATCCGTATTTGTC (site GTATGCACTTA)
The “recombinant UMI read abundance (log10)” value of the first is higher: 3.13 for the first, 1.33 for the second.

First: GTATGCACATGGACCGGTTTTCCCGGTAATCCGTATTTGTT (site GTATGCACTAA)
Second: GTATGCACATGGACCGGTTTTCCCGGTAATCCGTATTTGTT (site GTATGCACTCA)
The “recombinant UMI read abundance (log10)” value of the first is higher: 1.32 for the first, 0.25 for the second.

Going from “GTATGCACATGGACCGGTTTTCCCGGTAATCCGTATTTGTT (site GTATGCACTGA)” to “GTATGCACATGGACCGGTTTTCCCGGTAATCCGTATTTGTT (site GTATGCACTTA)”, the “recombinant UMI read abundance (log10)” value falls from 1.66 to 0.606.

First: GTATGTACATGGACCGGTTTTCCCGGTAATCCGTATTTGAC (site GTAAGTACTGT)
Second: GTATGTACATGGACCGGTTTTCCCGGTAATCCGTATTTGAC (site GTACGTACTGT)
The “recombinant UMI read abundance (log10)” value of the first is lower: 0.262 for the first, 2.5 for the second.

Compared with “GTATGTACATGGACCGGTTTTCCCGGTAATCCGTATTTGAC (site GTAGGTACTGT)”, “GTATGTACATGGACCGGTTTTCCCGGTAATCCGTATTTGAC (site GTATGTACTGT)” is higher in “recombinant UMI read abundance (log10)” value: 0.95 for the first, 2.9 for the second.

For “GTATTAACATGGACCGGTTTTCCCGGTAATCCGTATTTGCA (site GTATTAACTTG)”, the “recombinant UMI read abundance (log10)” value was 2.37.
